Square brackets hold non-standard residues; d marks the D form. Ends that are not written are not given here. Gla = N[C@@H](CC(C(=O)O)C(=O)O)C(=O)O
Key:
[1] = Binding of synthetic KRT peptide to hydroxyapatite (micro-BCA depletion); settings: 50 μM peptide, 1 mg hydroxyapatite, 30 minutes at 37° C.
Description: A 50 μM peptide solution containing the synthetic KRT peptide, KRTGQYKLGGGAAAA(Gla)PRR(Gla)VA(Gla)L (SEQ ID NO: 12), was incubated with 1 mg of hydroxyapatite particles for 30 minutes at 37° C. After incubation, the concentration of peptide in solution was determined using a micro-BCA assay (Pierce) as a measure of the depletion of the peptide from solution due to hydroxyapatite binding.

hMSCs [2] = assay: hMSC adhesion on RGESP- and RGDSP-presenting SAMs; type: cell-based, human; settings: for hMSC attachment (number per unit area): RGDSP=0.0001, 0.001 or 0.01 vs RGESP alone, 12 hrs attachment
Description: (§1) To maintain multipotency, hMSCs were expanded at low density on tissue culture treated polystyrene plates. At passage 6, cells were harvested from the plate, suspended in medium supplemented with 10% fetal bovine serum, and counted using a hemacytometer. Cells were collected as a pellet by centrifugation at 1100 rpm for 5 minutes, the media was decanted off of the pellet, and the cells were suspended in fresh αMEM at a density of 20,000 cells/250 μL. SAM preparation and peptide conjugation were performed using the protocols described above Immediately after peptide conjugation, SAMs were placed into 1 mL of 1× PBS (pH 7.4) in a 12-well tissue culture plate to prevent degradation of the monolayer due to air oxidation. PBS was aspirated from the wells and replaced with 1.25 mL of αMEM, followed by addition of 250 μL of the cell suspension directly over the SAM substrate in each well. Plates were then gently rocked for 10 seconds to evenly distribute cells over the substrate surface. Substrates were then incubated for a specified time frame (12 hrs for RGESP/RGDSP SAMs, 4 hrs for RGDSP/TYRSRKY SAM in a humid environment at 37° C., 5% CO2 to allow hMSC attachment. At the end of the attachment period, the hMSC growth media was aspirated from the well and the substrates were gently washed with sterile 1× PBS to remove any loosely bound cells. The 1× PBS solution was then replaced with fresh medium. Brightfield photomicrographs of cells were then collected using an Olympus IX51 inverted microscope.
(§2) hMSCs were seeded on the SAMs as described previously. After washing away loosely bound cells using 1× PBS, cytoskeletal immunostaining of hMSCs was performed by following the protocol supplied by the manufacturer. Briefly, a 4% paraformaldehyde solution in 1× PBS was added to the wells for 15 minutes to fix the cells, followed by a 5 minute incubation in a 1× PBS solution containing 0.05% Tween-20 to permeabilize the cells. […] After blocking, a 1× PBS solution containing an anti-Vinculin primary antibody was added to each well and allowed to incubate at room temperature for 60 minutes. The wells were then washed gently three times using a 1× PBS solution containing 0.1 wt % bovine serum albumin. Immediately after washing, a 1× PBS solution containing a fluorescein-tagged […] secondary antibody and a TRITC-tagged anti-Phalloidin antibody was added to each well and allowed to incubate at room temperature for 45 minutes. Substrates were then washed using the method described previously. Cytoskeletal staining was analyzed using an Olympus IX51 inverted epifluorescent microscope equipped with FITC and TRITC filter cube sets.

[3] = test system: human umbilical vein endothelial cells (HUVECs); assay: HUVEC proliferation versus KRTGQYKL surface density and FGF-2 concentration; type: cell-based; settings: 2% RGDSP, 10% FBS
Description: Human umbilical vein endothelial cells (HUVECs) as a model cell type were used to investigate the correlation between the surface density of bound heparin PGs, the concentration of soluble FGF-2, and the extent of up-regulation of FGF-mediated cell proliferation.
HUVECs were cultured according to the protocol supplied by the manufacturer. Sub-confluent cells were harvested from the plate, suspended in M199 supplemented with 10% FBS, and counted using a hemacytometer. Cells were collected as a pellet by centrifugation at 1100 rpm for 5 minutes, the media was decanted off of the pellet, and the cells were suspended in fresh serum-supplemented M199 at a density of 20,000 cells/250 μL. SAMs presenting 2% RGDSP (SEQ ID NO: 8) and various densities of KRTGQYKL (SEQ ID NO: 1) were prepared by incubating NHS-activated SAMs in 1× PBS solutions containing 125 μM RGDSP (SEQ ID NO: 8), and various molar ratios of KRTGQYKL (SEQ ID NO: 1) and TYRKKGLQ (SEQ ID NO: 9) at a total concentration of 125 μM Immediately after peptide conjugation, HUVECs were seeded on the SAM substrates at a density of 10,000 cells/cm^2 in M199 supplemented with 10% FBS. […] Brightfield photomicrographs (40× mag) of each substrate were collected on an Olympus IX51 inverted epifluorescent microscope at t=0, 24, 48, and 72 hrs, and the total number of cells per viewing area was counted manually.

hMSCs [4] = assay: hMSC proliferation on KRTGQYKL-SAMs in the presence of FBS and PD 173074; type: cell-based, human; settings: 200 nM PD 173074, 10% FBS; FIG. 11
Description: Proliferation of hMSCs cultured on KRTGQYKL-SAMs in medium supplemented with FBS and PD 173074 was determined PD 173074 is a soluble inhibitor of FGF-2 and FGF-4 cognate receptors FGF receptor-1 and -3. hMSCs were cultured on SAMs presenting 2% RGDSP (SEQ ID NO: 8) and either 2% KRTGQYL (SEQ ID NO: 1) or TYRKKGLQ (SEQ ID NO: 9) in medium supplemented with 200 nM PD 173074 and 10% FBS.
hMSCs were expanded at low density on tissue culture treated polystyrene plates using the method described previously by Sotiropoulou et al. to maintain […] (Sotiropoulou et al., “Characterization of the optimal culture conditions for clinical scale production of human mesenchymal stem cells,” Stem Cells, 24:462 (2006)). At passage 6, cells were harvested from the plate, suspended in medium supplemented with 10% fetal bovine serum, and counted using a hemacytometer. Cells were collected as a pellet by centrifugation at 1100 rpm for 5 minutes, the media was decanted off of the pellet, and the cells were suspended in αMEM supplemented with 10% FBS at a density of 20,000 cells/250 μL. […] The total number of cells per viewing area was counted manually for 3 samples per condition.

hMSCs [5] = assay: hMSC projected cell area on SAMs presenting RGDSP and TYRSRKY; type: cell-based, human
Description: as §1, §2

[6] = biological target: T1, alpha-5 beta-1 integrins (on human mesenchymal stem cells) (human, UniProt P08648 42-1049; P05556 21-798); assay: hMSCs cultured on RGDSP-presenting SAMs in osteogenic induction medium (cell area, cell number, alkaline phosphatase)
T1 construct: whole, on cells; Endogenous integrin on hMSCs; also called hMSC integrin receptors
Description: SAMs were prepared as previously described. Low passage number hMSCs were harvested from polystyrene plates and seeded on SAMs presenting RGDSP (SEQ ID NO: 8), RGDSP(SEQ ID NO: 8)/[…](SEQ ID NO: 1), or RGDSP(SEQ ID NO: 8)/TYRSRKY(SEQ ID NO: 2), at specified surface densities at a cell density of 2500 cells/cm². Cells were cultured in αMEM basal medium supplemented with 10% FBS, 50 μg/mL 2-phosphate ascorbic acid, 10 mM β-glycerophosphate, and 100 nM dexamethasone for 7 days. Brightfield images of cells were collected to measure cell projected area and quantification of cell number as a function of time. At the end of the 7-day culture period, alkaline phosphatase activity was analyzed using the SensoLyte FDP alkaline phosphatase assay kid (Anaspec, Fremont, Calif.).

recombinant human FGF-2 = biological target: T2, recombinant human FGF-2 (human, UniProt P09038 135-288, limits assumed); assay: PM-IRRAS of 1% KRTGQYKL-SAMs after 20 min in 1x PBS with FGF-2
T2 construct: also called rhFGF-2; fibroblast growth factor-2
Description: PM-IRRAS was used to characterize FGF-2 binding onto […]-SAMs. 1% […] SAMs were incubated in a lx PBS solution (pH 7.4) containing 10 μg/mL recombinant human FGF-2 for 20 minutes and analyzed using PM-IRRAS.

T2 sequence (P09038 135-288 limits assumed): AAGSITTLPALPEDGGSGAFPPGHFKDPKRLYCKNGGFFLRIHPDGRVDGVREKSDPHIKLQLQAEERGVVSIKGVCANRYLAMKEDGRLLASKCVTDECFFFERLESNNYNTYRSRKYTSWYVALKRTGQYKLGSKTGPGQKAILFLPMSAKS
T1 sequence (P08648 42-1049, chain 1 of 2): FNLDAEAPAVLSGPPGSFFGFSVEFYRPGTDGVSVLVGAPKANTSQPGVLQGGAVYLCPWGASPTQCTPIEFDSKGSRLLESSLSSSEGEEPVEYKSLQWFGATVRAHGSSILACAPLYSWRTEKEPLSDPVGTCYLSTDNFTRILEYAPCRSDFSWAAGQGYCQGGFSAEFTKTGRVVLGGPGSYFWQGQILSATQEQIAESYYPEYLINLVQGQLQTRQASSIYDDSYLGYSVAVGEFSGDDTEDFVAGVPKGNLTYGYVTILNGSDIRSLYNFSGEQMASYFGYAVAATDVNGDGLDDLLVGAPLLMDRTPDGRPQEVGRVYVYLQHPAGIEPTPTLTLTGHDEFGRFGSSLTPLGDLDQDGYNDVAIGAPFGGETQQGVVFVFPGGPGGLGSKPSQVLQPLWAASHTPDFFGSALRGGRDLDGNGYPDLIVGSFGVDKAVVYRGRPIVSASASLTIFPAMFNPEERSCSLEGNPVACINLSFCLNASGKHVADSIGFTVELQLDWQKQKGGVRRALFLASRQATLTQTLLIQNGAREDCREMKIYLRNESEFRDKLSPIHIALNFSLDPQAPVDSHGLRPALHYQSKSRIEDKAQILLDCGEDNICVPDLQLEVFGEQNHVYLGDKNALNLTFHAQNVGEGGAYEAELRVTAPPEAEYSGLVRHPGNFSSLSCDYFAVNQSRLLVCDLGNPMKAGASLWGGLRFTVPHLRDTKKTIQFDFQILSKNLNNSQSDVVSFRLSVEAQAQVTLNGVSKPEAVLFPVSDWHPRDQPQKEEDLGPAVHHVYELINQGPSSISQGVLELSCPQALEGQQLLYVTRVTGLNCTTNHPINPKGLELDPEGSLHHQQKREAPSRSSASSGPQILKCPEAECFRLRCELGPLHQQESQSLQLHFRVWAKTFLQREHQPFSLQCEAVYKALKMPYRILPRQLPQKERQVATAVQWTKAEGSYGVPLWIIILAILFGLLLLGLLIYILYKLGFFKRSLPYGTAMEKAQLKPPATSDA
T1 sequence (P05556 21-798, chain 2 of 2): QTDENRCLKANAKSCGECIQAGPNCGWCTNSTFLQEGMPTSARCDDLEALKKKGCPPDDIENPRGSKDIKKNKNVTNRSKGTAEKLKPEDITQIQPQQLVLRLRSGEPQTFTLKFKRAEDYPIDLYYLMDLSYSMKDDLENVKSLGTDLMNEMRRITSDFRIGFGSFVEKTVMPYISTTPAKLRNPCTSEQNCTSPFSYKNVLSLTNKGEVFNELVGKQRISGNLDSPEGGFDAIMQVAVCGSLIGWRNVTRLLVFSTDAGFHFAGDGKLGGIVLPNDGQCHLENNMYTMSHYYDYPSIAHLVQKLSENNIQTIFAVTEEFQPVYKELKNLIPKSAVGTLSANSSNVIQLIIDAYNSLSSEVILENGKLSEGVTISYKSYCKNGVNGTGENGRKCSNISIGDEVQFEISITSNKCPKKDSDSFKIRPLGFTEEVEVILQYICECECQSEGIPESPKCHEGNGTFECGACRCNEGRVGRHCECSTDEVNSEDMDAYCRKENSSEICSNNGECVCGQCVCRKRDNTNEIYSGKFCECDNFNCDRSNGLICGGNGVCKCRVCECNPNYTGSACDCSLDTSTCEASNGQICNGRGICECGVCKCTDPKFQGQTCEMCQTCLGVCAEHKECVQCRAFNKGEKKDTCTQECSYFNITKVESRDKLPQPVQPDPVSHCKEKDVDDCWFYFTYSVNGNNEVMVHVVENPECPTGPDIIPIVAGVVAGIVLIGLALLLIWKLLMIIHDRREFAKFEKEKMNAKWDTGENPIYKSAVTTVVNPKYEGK

KRTGQYKLGGGAAAA(Gla)PRR(Gla)VA(Gla)L (KRTGQYKLGGGAAAA[Gla]PRR[Gla]VA[Gla]L; not fully specified (C-terminus); printed as KRTGQYKLGGGAAAA(Gla)PRR(Gla)VA(Gla)L) [KRT peptide]
peptide bound by hydroxyapatite particles [1]: 66.08 nmol/m^2

RGESP (not fully specified (C-terminus)) [amine-terminated peptide co-immobilized with RGDSP on SAMs, reference compound]
influence of co-immobilized peptide on RGDSP-dependent hMSC adhesion (hMSCs [2]): did not influence RGDSP-dependent hMSC adhesion
hMSC attachment (number per unit area) (hMSCs [2]): absent

KRTGQYKL
HUVEC number ([3]; surface density of 2% KRTGQYKL, 1 ng/mL FGF-2): significant increase
HUVEC number ([3]; surface density of KRTGQYKL>0.1%, 5 ng/mL FGF-2, by 72 hours): significant increase

CCN(CC)CCCCNc1ncc2cc(-c3cc(OC)cc(OC)c3)c(NC(=O)NC(C)(C)C)nc2n1 [PD 173074]
increased proliferation of hMSCs on KRTGQYKL SAMs (hMSCs [4]): completely abolished

RGDSP
number of focal adhesion complexes versus RGDSP surface density (hMSCs [2]; FIGS. 36 and 38): direct correlation
hMSC attachment (number per unit area) (hMSCs [2]): significant number of hMSCs were present
hMSC morphology (hMSCs [2]; higher RGDSP densities (RGDSP=0.001 or 0.01)): more well-spread morphology
hMSC morphology (hMSCs [2]; low density of RGDSP (RGDSP=0.0001)): polarized, spindle-shaped morphology

TYRSRKY
hMSC morphology (projected cell area) (hMSCs [5]; 0.1% RGDSP, 0.1-1% TYRSRKY, 10% FBS): rounded morphology
hMSC morphology (projected cell area) (hMSCs [5]; 0.1% RGDSP, high TYRSRKY density, absence of serum): well-spread morphology
hMSC morphology (projected cell area) (hMSCs [5]; 0.1% RGDSP, low TYRSRKY surface density, absence of serum): rounded hMSCs morphology
hMSC morphology (projected cell area) (hMSCs [5]; 1.0% RGDSP, 0.1-1.0% TYRSRKY, absence of serum): well-spread hMSC morphology
hMSC spreading (hMSCs [5]; 1.0% RGDSP, TYRSRKY>0.5%, 10% FBS): decrease in hMSC spreading
hMSC morphology (projected cell area) (hMSCs [5]; SAMs presenting 0.1-1.0% TYRSRKY, no RGDSP, presence or absence of serum): rounded morphology

B1: RGDSP cell adhesion (integrin-binding) peptide (SEQ ID NO: 8), immobilized on a self-assembled monolayer (peptide)
peptide: RGDSP-NH2
modifications: also: immobilized on SAM on gold
notes: Made by Fmoc solid phase synthesis on Rink amide MBHA resin and conjugated to a SAM on gold; also called RGDSP SAMs; cell-adhesion peptide
binding result [6]: binds

B2: KRTGQYKL synthetic heparin-binding peptide (SEQ ID NO: 1), immobilized on a self-assembled monolayer (peptide)
peptide: KRTGQYKL-NH2
modifications: also: immobilized on oligo(ethylene glycol) alkanethiolate SAM on gold
notes: Made by Fmoc solid phase synthesis on Rink amide MBHA resin
binding result (recombinant human FGF-2): no binding (tested: 10 µg/mL recombinant human FGF-2)
